The assay concerns the target T1, P2Y14 receptor (Rattus norvegicus, UniProt O35881).
T1 sequence (O35881 1-305): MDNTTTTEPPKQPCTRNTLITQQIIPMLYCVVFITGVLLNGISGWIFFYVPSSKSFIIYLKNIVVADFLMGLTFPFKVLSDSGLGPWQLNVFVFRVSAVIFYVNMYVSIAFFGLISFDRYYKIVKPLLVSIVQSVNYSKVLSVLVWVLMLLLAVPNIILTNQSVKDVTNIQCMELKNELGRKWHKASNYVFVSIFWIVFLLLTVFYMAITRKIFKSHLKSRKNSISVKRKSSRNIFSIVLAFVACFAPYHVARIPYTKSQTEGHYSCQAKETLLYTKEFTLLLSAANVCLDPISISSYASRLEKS
Kind of assay: agonist-stimulated […]GTPγS binding to RBL-2H3 membranes. The class given is biochemical. Background: GTPγS is a poorly hydrolysed GTP analogue; its binding reports G protein activation.

The text below walks through data of paper PMC2812605 (Biochemical pharmacology, 2009).

What is called EC50 is the concentration needed to bring the measured effect to its halfway point. Lower therefore signals greater potency.

As to `O=c1ccn([C@@H]2O[C@H](COP(=O)(O)OP(=O)(O)O[C@H]3O[C@H](CO)[C@@H](O)[C@H](O)[C@H]3O)[C@@H](O)[C@H]2O)c(=S)[nH]1` [MRS2690, diphosphoric acid 1-α-D-glucopyranosyl ester 2-(2-thiouridin-5’’-yl) ester], the EC50 was 8.1 ± 1.6 nM.
